Assay results published in patent EP4186364A1, “ANTIMICROBIAL TREATMENT OF SUBSTRATES” (Livinguard AG, priority 2021, dated 2023).
≈ marks a conversion by molar mass, not a printed value. Where two headings read alike, the source gives them in different places.

Assays:
[1] = tested on: Escherichia coli (E.coli); assay: Antimicrobial activity of a METAC solution (optical density OD600); format: cell-based
[2] = at 20 °C; Flask method; cited from earlier work
[3] = at 20 °C; Column elution; cited from earlier work

SMILES	METAC required to stop E.coli growth ([1]; METAC in solution, OD600, Fig. 8b) [mg/mL]	antimicrobial activity ([1]; METAC monomer as such, not bound to a substrate)	water solubility [2] [µg/mL]	water solubility [3] [µg/mL]
C=C(C)C(=O)OCC[N+](C)(C)C.[Cl-] [METAC, [2-(methacryloyloxy)ethyl]trimethylammonium chloride]	40	low antimicrobial activity		
Cc1cc(C)c(C(=O)P(=O)(c2ccccc2)c2ccccc2)c(C)c1 [TPO, diphenyl(2,4,6-trimethylbenzoyl)phosphine oxide]			3.3 (≈ 9.47 µM)	11.9 (≈ 34.2 µM)
